Results: patent publication US12173018B2, “Penicillin-binding protein inhibitors” (priority 2018, dated 2024)

Key:
E. coli ATCC 25922 = test: Broth microdilution MIC, E. coli ATCC 25922; type: cell-based; conditions: Escherichia coli, ATCC25922, read-out: MIC E. coli 25922
Summary of the method: (§1)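 MIC = lowest concentration showing no visible growth after 16-20 h at 37° C. Cation-adjusted MH broth, 2-fold serial dilutions, starting inoculum 5×10^5 CFU/mL, per CLSI methods.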

E. coli AG100 = test: Broth microdilution MIC, E. coli AG100 (wild-type parent); type: cell-based; conditions: Escherichia coli; wild-type parent E. coli AG100, broth microdilution; read-out: MIC E. coli AG100
Summary of the method: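 Broth microdilution in cation-supplemented Mueller-Hinton broth, 2-fold serial compound dilutions, inoculum 5×10^5 CFU/mL from 3-5 h log culture.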

E. coli 901C = test: microbe, parasite or virus in culture; type: cell-based; conditions: Escherichia coli; hyper-permeable E. coli 901C, broth microdilution; read-out: MIC E. coli 901C
Summary of the method: as §1

E. coli AG100A = test: microbe, parasite or virus in culture; type: cell-based; conditions: Escherichia coli, read-out: MIC E. coli AG100A
Summary of the method: as §1

E. coli D22 = test: microbe, parasite or virus in culture; type: cell-based; conditions: Escherichia coli; hyper-permeable E. coli D22, broth microdilution; read-out: MIC E. coli D22
Summary of the method: as §1

K. pneumoniae SI-117 = test: microbe, parasite or virus in culture; type: cell-based; conditions: Klebsiella pneumoniae, SI117, read-out: MIC K. pneumoniae SI-117
Summary of the method: as §1

K. pneumoniae UMM = test: microbe, parasite or virus in culture; type: cell-based; conditions: Klebsiella pneumoniae; K. pneumoniae UMM producing SHV-5 and KPC-2; read-out: MIC K. pneumoniae UMM
Summary of the method: as §1

[1] = tested on: P. aeruginosa (ΔmexAB-oprM); test: microbe, parasite or virus in culture; type: cell-based; conditions: Pseudomonas aeruginosa, read-out: MIC P. aeruginosa ΔmexAB-OprM
Summary of the method: as §1

P. aeruginosa ATCC 35151 = test: microbe, parasite or virus in culture; type: cell-based; conditions: Pseudomonas aeruginosa, ATCC35151; hyper-permeable P. aeruginosa ATCC 35151; read-out: MIC P. aeruginosa ATCC 35151
Summary of the method: as §1

K. pneumoniae 848844 = test: microbe, parasite or virus in culture; type: cell-based, Klebsiella pneumoniae; conditions: Klebsiella pneumoniae; K. pneumoniae 848844 producing SHV-11 and KPC-2; read-out: MIC K. pneumoniae 848844
Summary of the method: as §1

P. aeruginosa ATCC 27853 = test: Broth microdilution MIC, P. aeruginosa ATCC 27853; type: cell-based; conditions: Pseudomonas aeruginosa, ATCC27853, read-out: MIC P. aeruginosa ATCC 27853
Method: To determine the ability of test compounds to potentiate the inhibition of the growth of bacterial strains, classic cell based broth microdilution minimum inhibitory concentration (MIC) assays were employed. MIC assays are performed according to CLSI methods except where otherwise noted (CLSI, 2011 and CLSI, 2009). The reference type strain E. coli ATCC 25922, the wild-type parent strain E. coli AG100, the hyper-permeable E. coli 901C and E. coli D22 and the E. coli AG100A strain lacking the acrAB efflux pump encoding genes were used to determine the ability of the PBP inhibitors to penetrate the outer membrane of gram-negative bacteria and inhibit bacterial growth. […] The P. aeruginosa PAO1, P. aeruginosa ATCC 27853 and A. baumannii ATCC 19606, along with the hyper-permeable P. aeruginosa ATCC 35151 and an engineered efflux pump-compromised strain of P. aeruginosa (ΔmexAB-oprM) were used to determine the ability of PBP inhibitors to penetrate the outer membrane of P. aeruginosa and A. baumannii and assess antibacterial activity against these important gram-negative organisms.
Briefly, cryo-preserved bacterial cultures of challenge strains are streaked for isolation on appropriate agar medium, in this case Mueller Hinton II agar. Following incubation to allow growth of the colonies, plates are sealed with parafilm and stored refrigerated for up to two weeks. For preparation of assay inoculum and to ensure low variability, at least 5 colonies are picked from the agar plates with an inoculating loop and aseptically transferred to a culture tube containing 3 mL of Mueller-Hinton Broth (supplemented with divalent cations to required levels based on Manufacturers' certification). The broth culture is grown for 3-5 hours at 37° C. with shaking at 200 rpm. Meanwhile, 2-fold serial dilutions of test compounds are conducted in a 96 well plate with a final volume of 75 μL per well at 2-fold the final desired concentration. After the dilution plates are set up the growing cultures are then diluted in a cuvette containing MH II broth and the optical density is measured at 600 nm. The Inoculum is diluted such that 75 μL of this culture in Mueller-Hinton Broth results in a starting bacterial concentration of 5×10^5 CFU/mL when added to the dilution plates. The plates are incubated for 16-20 hours at 37° C. The MIC values are read visually as the lowest concentration well with no bacterial growth.

A. baumannii ATCC 19606 = test: Broth microdilution MIC, A. baumannii ATCC 19606; type: cell-based; conditions: Acinetobacter baumannii, ATCC19606, read-out: MIC A. baumannii ATCC 19606
Summary of the method: as §1

| Compound | MIC (E. coli ATCC 25922) | MIC (E. coli AG100) | MIC (E. coli 901C) | MIC (E. coli AG100A) | MIC (E. coli D22) | MIC (K. pneumoniae SI-117) | MIC (K. pneumoniae UMM) | MIC [1] | MIC (P. aeruginosa ATCC 35151) | MIC (K. pneumoniae 848844) | MIC (P. aeruginosa ATCC 27853) | MIC (A. baumannii ATCC 19606) |
| --- | --- | --- | --- | --- | --- | --- | --- | --- | --- | --- | --- | --- |
| CCN1CCN(C(=O)N[C@@H](C(=O)N[C@H]2Cc3ccc(F)c(C(=O)O)c3OB2O)c2c(F)cc(O)c(O)c2Cl)C(=O)C1=O [Example 251, (R)-3-((R)-2-(2-chloro-6-fluoro-3,4-dihydroxyphenyl)-2-(4-ethyl-2,3-dioxopiperazine-1-carboxamido)acetamido)-7-fluoro-2-hydroxy-3,4-dihydro-2H-benzo[e][1,2]oxaborinine-8-carboxylic acid] | 2 to 4 µg/mL | 0.5 to 1 µg/mL | 0.5 to 1 µg/mL | 0.5 to 1 µg/mL | 0.5 to 1 µg/mL | 2 to 4 µg/mL | 0.5 to 1 µg/mL | < 0.25 µg/mL | < 0.25 µg/mL | 2 to 4 µg/mL | 0.5 to 1 µg/mL | 0.5 to 1 µg/mL |
| NS(=O)(=O)NCCN1CCN(C(=O)NC(C(=O)N[C@H]2Cc3ccc(F)c(C(=O)O)c3OB2O)c2ccc(O)c(O)c2Cl)C(=O)C1=O (stereo partly drawn) [Example 244, (3R)-3-(2-(2-chloro-3,4-dihydroxyphenyl)-2-(2,3-dioxo-4-(2-(sulfamoylamino)ethyl)piperazine-1-carboxamido)acetamido)-7-fluoro-2-hydroxy-3,4-dihydro-2H-benzo[e][1,2]oxaborinine-8-carboxylic acid] | 8 to 16 µg/mL | 2 to 4 µg/mL | 0.5 to 1 µg/mL | 0.5 to 1 µg/mL | 0.5 to 1 µg/mL | 2 to 4 µg/mL | 0.5 to 1 µg/mL | < 0.25 µg/mL | < 0.25 µg/mL | 2 to 4 µg/mL | < 0.25 µg/mL | < 0.25 µg/mL |
| NCCCN1CCN(C(=O)N[C@@H](C(=O)N[C@H]2Cc3cccc(C(=O)O)c3OB2O)c2ncc(O)cc2F)C(=O)C1=O [Example 252, (R)-3-((R)-2-(4-(3-aminopropyl)-2,3-dioxopiperazine-1-carboxamido)-2-(3-fluoro-5-hydroxypyridin-2-yl)acetamido)-2-hydroxy-3,4-dihydro-2H-benzo[e][1,2]oxaborinine-8-carboxylic acid] | 8 to 16 µg/mL | 8 to 16 µg/mL | 0.5 to 1 µg/mL | 0.5 to 1 µg/mL | 2 to 4 µg/mL | 32 to 64 µg/mL | 8 to 16 µg/mL | 8 to 16 µg/mL | < 0.25 µg/mL | 32 to 64 µg/mL | 32 to 64 µg/mL | > 128 µg/mL |
| CCN1CC(C)(C)N(C(=O)NC(C(=O)N[C@H]2Cc3cccc(C(=O)O)c3OB2O)c2ncc(O)cc2F)C(=O)C1=O (stereo partly drawn) [Example 245, (3R)-3-(2-(4-ethyl-2,2-dimethyl-5,6-dioxopiperazine-1-carboxamido)-2-(3-fluoro-5-hydroxypyridin-2-yl)acetamido)-2-hydroxy-3,4-dihydro-2H-benzo[e][1,2]oxaborinine-8-carboxylic acid] | > 128 µg/mL | > 128 µg/mL | 8 to 16 µg/mL | 32 to 64 µg/mL | > 128 µg/mL | > 128 µg/mL | > 128 µg/mL | > 128 µg/mL | 32 to 64 µg/mL | > 128 µg/mL | > 128 µg/mL | > 128 µg/mL |
| CCN1C[C@H](CCN)N(C(=O)NC(C(=O)N[C@H]2Cc3cccc(C(=O)O)c3OB2O)c2ncc(O)cc2F)C(=O)C1=O (stereo partly drawn) [Example 240, (3R)-3-(2-((S)-6-(2-aminoethyl)-4-ethyl-2,3-dioxopiperazine-1-carboxamido)-2-(3-fluoro-5-hydroxypyridin-2-yl)acetamido)-2-hydroxy-3,4-dihydro-2H-benzo[e][1,2]oxaborinine-8-carboxylic acid] | > 128 µg/mL | > 128 µg/mL | 8 to 16 µg/mL | 8 to 16 µg/mL | 8 to 16 µg/mL | > 128 µg/mL | > 128 µg/mL | > 128 µg/mL | 8 to 16 µg/mL | > 128 µg/mL | > 128 µg/mL | > 128 µg/mL |
| CC(=O)NCCN1CCN(C(=O)NC(C(=O)N[C@H]2Cc3ccc(F)c(C(=O)O)c3OB2O)c2ccc(O)c(O)c2Cl)C(=O)C1=O (stereo partly drawn) [Example 243, (3R)-3-(2-(4-(2-acetamidoethyl)-2,3-dioxopiperazine-1-carboxamido)-2-(2-chloro-3,4-dihydroxyphenyl)acetamido)-7-fluoro-2-hydroxy-3,4-dihydro-2H-benzo[e][1,2]oxaborinine-8-carboxylic acid] | 8 to 16 µg/mL | 2 to 4 µg/mL | 0.5 to 1 µg/mL | 0.5 to 1 µg/mL | 2 to 4 µg/mL | 2 to 4 µg/mL | 2 to 4 µg/mL | < 0.25 µg/mL | < 0.25 µg/mL | 2 to 4 µg/mL | < 0.25 µg/mL | 0.5 to 1 µg/mL |
| C[C@H]1CN(CCN)C(=O)C(=O)N1C(=O)NC(C(=O)N[C@H]1Cc2cccc(C(=O)O)c2OB1O)c1ccc(O)c(O)c1Cl (stereo partly drawn) [Example 248, (3R)-3-(2-((S)-4-(2-aminoethyl)-6-methyl-2,3-dioxopiperazine-1-carboxamido)-2-(2-chloro-3,4-dihydroxyphenyl)acetamido)-2-hydroxy-3,4-dihydro-2H-benzo[e][1,2]oxaborinine-8-carboxylic acid] | 8 to 16 µg/mL | 2 to 4 µg/mL | 0.5 to 1 µg/mL | 0.5 to 1 µg/mL | 2 to 4 µg/mL | 2 to 4 µg/mL | 2 to 4 µg/mL | < 0.25 µg/mL | < 0.25 µg/mL | 2 to 4 µg/mL | 32 to 64 µg/mL | 0.5 to 1 µg/mL |
| O=C(O)CN1CCN(C(=O)NC(C(=O)N[C@H]2Cc3cccc(C(=O)O)c3OB2O)c2ccc(O)c(O)c2Cl)C(=O)C1=O (stereo partly drawn) [Example 249, (3R)-3-(2-(4-(carboxymethyl)-2,3-dioxopiperazine-1-carboxamido)-2-(2-chloro-3,4-dihydroxyphenyl)acetamido)-2-hydroxy-3,4-dihydro-2H-benzo[e][1,2]oxaborinine-8-carboxylic acid] | 32 to 64 µg/mL | 8 to 16 µg/mL | 2 to 4 µg/mL | 8 to 16 µg/mL | 8 to 16 µg/mL | 8 to 16 µg/mL | 8 to 16 µg/mL | < 0.25 µg/mL | < 0.25 µg/mL | 2 to 4 µg/mL | 0.5 to 1 µg/mL | 0.5 to 1 µg/mL |
| CNCCN1CCN(C(=O)N[C@@H](C(=O)N[C@H]2Cc3ccc(F)c(C(=O)O)c3OB2O)c2ccc(O)c(O)c2Cl)C(=O)C1=O [Example 242, (R)-3-((R)-2-(2-chloro-3,4-dihydroxyphenyl)-2-(4-(2-(methylamino)ethyl)-2,3-dioxopiperazine-1-carboxamido)acetamido)-7-fluoro-2-hydroxy-3,4-dihydro-2H-benzo[e][1,2]oxaborinine-8-carboxylic acid] | 8 to 16 µg/mL | 0.5 to 1 µg/mL | 0.5 to 1 µg/mL | 0.5 to 1 µg/mL | 0.5 to 1 µg/mL | 2 to 4 µg/mL | 0.5 to 1 µg/mL | < 0.25 µg/mL | < 0.25 µg/mL | 0.5 to 1 µg/mL | 0.5 to 1 µg/mL | 0.5 to 1 µg/mL |
